Reference: patent US12350270B2, “Antimalarial agents” (Merck Sharp & Dohme LLC, priority 2019, dated 2025)

The compounds below were run on parasites (ring stage, in human red blood cell culture) (assay: Parasite LDH growth assay (antiparasite potency, Parasite Assay)). Settings: Plasmodium falciparum, Erythrocyte, 72 h, 0.7% rings, 2% haematocrit, 72 hours at 37° C., LDH readout of parasite growth.
Format: cell-based, Plasmodium falciparum
Outline: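 Growth was read by an LDH assay after a freeze–thaw cycle (−80 °C overnight, 4 h thaw at RT). Before that, parasites grew with compound for 72 h at 37 °C under gassed, humidified conditions. The input was a ring-stage culture adjusted to 0.7% parasitemia and 2% haematocrit in serum (5%)/albumax (0.5%)-supplemented RPMI-Hepes.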
Work on `CCC1(CC)CC(=O)N(C2c3cc(C(=O)N[C@@H]4c5ccccc5C[C@H]4O)ccc3OCC2(C)OC)C(=N)N1` (stereo partly drawn) [Example 208, 4-(4,4-diethyl-2-imino-6-oxo-hexahydropyrimidin-1-yl)-N-[(1R,2R)-2-hydroxyindan-1-yl]-3-methoxy-3-methyl-chromane-6-carboxamide] yielded an EC50 of 3.7 nM. For `CCC1(CC)CC(=O)N(C2CC(C)Oc3ccc(C(=O)N[C@@H]4c5ccccc5OC[C@@]4(C)O)cc32)C(=N)N1` (stereo partly drawn) [Example 209, 4-(4,4-diethyl-2-imino-6-oxo-hexahydropyrimidin-1-yl)-N-[(3S,4R)-3-hydroxy-3-methyl-chroman-4-yl]-2-methyl-chromane-6-carboxamide], the EC50 was 7.9 nM. Compound `CC[C@]1(C)CC(=O)N(C2CC(C)Oc3ccc(C(=O)N[C@@H]4c5ccccc5OC(C)(C)[C@H]4O)cc32)C(=N)N1` (stereo partly drawn) [Example 210, 4-[(4R)-4-ethyl-2-imino-4-methyl-6-oxo-hexahydropyrimidin-1-yl]-N-[(3S,4R)-3-hydroxy-2,2-dimethyl-chroman-4-yl]-2-methyl-chromane-6-carboxamide] has an EC50 of 195 nM. `CCC1(CC)CC(=O)N([C@@H]2CCCOc3ccc(C(=O)N[C@@H]4c5ccccc5OC[C@@]4(C)O)cc32)C(=N)N1` [Example 211, (5R)-5-(4,4-diethyl-2-imino-6-oxo-hexahydropyrimidin-1-yl)-N-[(3S,4R)-3-hydroxy-3-methyl-chroman-4-yl]-2,3,4,5-tetrahydro-1-benzoxepine-7-carboxamide] gave an EC50 of 8.9 nM. In the case of `CCC1(CC)CC(=O)N(C2c3cc(C(=O)N[C@@H]4c5ccccc5C[C@@]4(C)O)ccc3OCC2OC)C(=N)N1` (stereo partly drawn) [Example 212, 4-(4,4-diethyl-2-imino-6-oxo-hexahydropyrimidin-1-yl)-N-[(1R,2R)-2-hydroxy-2-methyl-indan-1-yl]-3-methoxy-chromane-6-carboxamide], the EC50 is reported as 6.5 nM. In the case of `CCC1(CC)CC(=O)N(C2c3cc(C(=O)N[C@@H]4c5ccccc5C[C@]4(C)O)ccc3OCC2OC)C(=N)N1` (stereo partly drawn) [Example 213, 4-(4,4-diethyl-2-imino-6-oxo-hexahydropyrimidin-1-yl)-N-[(1R,2S)-2-hydroxy-2-methyl-indan-1-yl]-3-methoxy-chromane-6-carboxamide], the EC50 is reported as 9 nM. For `CCC1(CC)CC(=O)N([C@H]2c3cc(C(=O)N[C@@H]4c5ccccc5C[C@H]4O)ccc3OC[C@H]2COC)C(=N)N1` [Example 215, (3R,4R)-4-(4,4-diethyl-2-imino-6-oxo-hexahydropyrimidin-1-yl)-N-[(1R,2R)-2-hydroxyindan-1-yl]-3-(methoxymethyl)chromane-6-carboxamide], the EC50 was 4.2 nM. Work on `CCC1(CC)CC(=O)N([C@H]2c3cc(C(=O)N[C@@H]4c5ccccc5C[C@H]4O)ccc3OC[C@@H]2COC)C(=N)N1` [Example 216, (3S,4R)-4-(4,4-diethyl-2-imino-6-oxo-hexahydropyrimidin-1-yl)-N-[(1R,2R)-2-hydroxyindan-1-yl]-3-(methoxymethyl)chromane-6-carboxamide] yielded an EC50 of 2.7 nM. In the case of `COC1COc2ccc(C(=O)N[C@@H]3c4ccccc4OC(C)(C)[C@H]3O)cc2C1N1C(=N)NC(C)(C)CC1=O` (stereo partly drawn) [Example 217, N-[(3S,4R)-3-hydroxy-2,2-dimethyl-chroman-4-yl]-4-(2-imino-4,4-dimethyl-6-oxo-hexahydropyrimidin-1-yl)-3-methoxy-chromane-6-carboxamide], the EC50 is reported as 4.9 nM. `CC[C@]1(C)CC(=O)N(C2c3cc(C(=O)N[C@@H]4c5ccccc5OC[C@@]4(C)O)ccc3OCC2OC)C(=N)N1` (stereo partly drawn) [Example 218, 4-[(4R)-4-ethyl-2-imino-4-methyl-6-oxo-hexahydropyrimidin-1-yl]-N-[(3S,4R)-3-hydroxy-3-methyl-chroman-4-yl]-3-methoxy-chromane-6-carboxamide] was tested, and the EC50 was 64 nM. In the case of `COCC1(C)Oc2ccc(C(=O)N[C@@H]3c4ccccc4OC[C@@]3(C)O)cc2C1N1C(=N)NC(C)(C)CC1=O` (stereo partly drawn) [Example 219, N-[(3S,4R)-3-hydroxy-3-methyl-chroman-4-yl]-3-(2-imino-4,4-dimethyl-6-oxo-hexahydropyrimidin-1-yl)-2-(methoxymethyl)-2-methyl-3H-benzofuran-5-carboxamide], the EC50 is reported as 208 nM.
